From article PMC7865522, “Analyzing Kinase Similarity in Small Molecule and Protein Structural Space to Explore the Limits of Multi-Target Screening” (Molecules, 2021)

Columns and labels:
BRAF [1] = target: T1, BRAF (Homo sapiens, UniProt P15056); assay: DiscoverX KINOMEscan competition binding assay; settings: for % control, BRAF (DiscoverX): compound 10 µM, lower values = higher affinity, below 35% = significant binding
T1 construct: purchased DiscoverX (KINOMEscan service); host or cells: E. coli BL21-derived host (T7 phage) or HEK-293
Method: (§1) Ligand binding experiments for the molecules selected from Profiles 1 and 2 towards nine kinases (EGFR, ErbB2, LCK, CDK2, BRAF, MET, p38α, PI3K and VEGFR2) and for molecules selected from Profiles 3 and 4 towards four kinases (EGFR, ErbB2, BRAF and VEGFR2) were carried out by DiscoverX using the supplied protocol as described in the Supplementary Materials. Briefly, ligand affinity was measured by competition with a resin-bound standard ligand and washed-off kinase concentration was determined via qPCR.
(§2) Summarizing, binding of a compound to a kinase was tested in comparison to a control compound (see Table S2). […]
(§3) 1.1. DiscoverX kinase assay
(§4) For most assays, kinase-tagged T7 phage strains were grown in parallel in 24-well blocks in an E.coli host derived from the BL21 strain. E.coli were grown to log-phase and infected with T7 phage from a frozen stock (multiplicity of infection = 0.4) and incubated with shaking at 32°C until lysis (90-150 minutes). The lysates were centrifuged (6,000 x g) and ﬁltered (0.2µm) to remove cell debris.
(§5) The remaining kinases were produced in HEK-293 cells and subsequently tagged with DNA for qPCR detection. Streptavidin-coated magnetic beads were treated with biotinylated small molecule ligands for 30 minutes at room temperature to generate afﬁnity resins for the kinases. The liganded beads were blocked with excess biotin and washed with blocking buffer (SeaBlock [Pierce], 1% BSA, 0.05% Tween 20, 1 mM DTT) to remove unbound ligands and to reduce non-speciﬁc phage binding. Binding reactions were assembled by combining kinases, liganded afﬁnity beads, and test compounds in 1x binding buffer (20% SeaBlock, 0.17x PBS, 0.05% Tween 20, 6 mM DTT). Test compounds were prepared as 40x stocks in 100% DMSO and directly diluted into the assay. All reactions were performed in polypropylene 384-well plates in a ﬁnal volume of 0.02 ml. The assay plates were incubated at room temperature with shaking for 1 hour and the afﬁnity beads were washed with wash buffer (1x PBS, 0.05% Tween 20). The beads were then re-suspended in elution buffer (1x PBS, 0.05% Tween 20, 0.5 µM non-biotinylated afﬁnity ligand) and incubated at room temperature with shaking for 30 minutes. The kinase concentration in the eluates was measured by qPCR. […]
(§6) Table S2. Experimental % control values from the DiscoverX kinase assay. Compounds were tested against the nine kinases EGFR, ErbB2, LCK, CDK2, BRAF, MET, p38α, PI3K and VEGFR2, unless otherwise stated. Binding of kinase and compound were tested at a compound concentration of 10 µM and in comparison to a control compound. Lower values indicate a higher afﬁnity of the compound to the protein and values below 35% indicate signiﬁcant binding according to information of the CRO. […]
(§7) a Compounds were only tested against four kinases (EGFR, ErbB2, BRAF and VEGFR2). b Compound was selected independently from two docking proﬁles and tested separately during

VEGFR2 = target: T2, VEGFR2 (Homo sapiens, UniProt P35968); assay: DiscoverX KINOMEscan competition binding assay; settings: compound 10 µM; lower values = higher affinity; below 35% = significant binding
T2 construct: purchased DiscoverX (KINOMEscan service); host or cells: E. coli BL21-derived host (T7 phage) or HEK-293
Method: as §1, §2, §3, §4, §5, §6, §7

EGFR [2] = target: T3, EGFR (Homo sapiens, UniProt P00533); assay: DiscoverX KINOMEscan competition binding assay; settings: compound 10 µM; lower values = higher affinity; below 35% = significant binding
T3 construct: purchased DiscoverX (KINOMEscan service); host or cells: E. coli BL21-derived host (T7 phage) or HEK-293
Method: as §1, §2, §3, §4, §5, §6, §7

LCK = target: T4, LCK (Homo sapiens, UniProt P06239); assay: DiscoverX KINOMEscan competition binding assay; settings: compound 10 µM; lower values = higher affinity; below 35% = significant binding
T4 construct: purchased DiscoverX (KINOMEscan service); host or cells: E. coli BL21-derived host (T7 phage) or HEK-293
Method: as §1, §2, §3, §4, §5, §6, §7

ErbB2 [3] = target: T5, ErbB2 (Homo sapiens, UniProt P04626); assay: DiscoverX KINOMEscan competition binding assay; settings: compound 10 µM; lower values = higher affinity; below 35% = significant binding
T5 construct: purchased DiscoverX (KINOMEscan service); host or cells: E. coli BL21-derived host (T7 phage) or HEK-293
Method: as §1, §2, §3, §4, §5, §6, §7

CDK2 = target: T6, CDK2 (Homo sapiens, UniProt P24941); assay: DiscoverX KINOMEscan competition binding assay; settings: compound 10 µM; lower values = higher affinity; below 35% = significant binding
T6 construct: purchased DiscoverX (KINOMEscan service); host or cells: E. coli BL21-derived host (T7 phage) or HEK-293
Method: as §1, §2, §3, §4, §5, §6, §7

p38α = target: T7, p38α (Homo sapiens, UniProt Q16539); assay: DiscoverX KINOMEscan competition binding assay; settings: compound 10 µM; lower values = higher affinity; below 35% = significant binding
T7 construct: purchased DiscoverX (KINOMEscan service); host or cells: E. coli BL21-derived host (T7 phage) or HEK-293
Method: as §1, §2, §3, §4, §5, §6, §7

MET = target: T8, MET (Homo sapiens, UniProt P08581); assay: DiscoverX KINOMEscan competition binding assay; settings: compound 10 µM; lower values = higher affinity; below 35% = significant binding
T8 construct: purchased DiscoverX (KINOMEscan service); host or cells: E. coli BL21-derived host (T7 phage) or HEK-293
Method: as §1, §2, §3, §4, §5, §6, §7

BRAF [4] = target: T1, BRAF; assay: Eurofins in vitro kinase inhibition assay; assay type: biochemical; settings: compound 20 µM; mean (SD); above 50% significant, 25-50% weak
Method: (§8) Kinase inhibition assays for EGFR, ErbB2, PI3K and BRAF were carried out by Eurofins Cerep following the protocols of Weber et al. (EGFR), Quian et al. (ErbB2), Sinnamon et al. (PI3K) and Kupcho et al. (BRAF). Briefly, except for PI3K, compounds were incubated with the respective kinase, ATP, and a substrate analog, and the effect of each compound on phosphorylation was measured. In the case of PI3K, the displacement of biotinylated PIP3 from a PIP3-binding complex by unlabelled PIP3 (produced from PIP2 by PI3K) was measured by Homogeneous Time Resolved Fluorescence (HTRF).
(§9) Finally, inhibition of the respective kinases is calculated as the percentage inhibition of control activity.
(§10) Table S3. Experimental results from the Euroﬁns assay. Inhibition of four kinases (EGFR, PI3K, ErbB2, BRAF) was measured at compound concentrations of 20 µM. Inhibition was calculated as % inhibition of control activity. According to CRO, values above 50% inhibition represent signiﬁcant inhibition, values above 25% weak inhibition effect and values below 25% as well as negative values are usually not signiﬁcant. Results are reported in mean (SD) format. […]
(§11) a Compound interfered with assay readout.

EGFR [5] = target: T3, EGFR; assay: Eurofins in vitro kinase inhibition assay; assay type: biochemical; settings: compound 20 µM; mean (SD); above 50% significant, 25-50% weak
Method: as §8, §9, §10, §11

ErbB2 [6] = target: T5, ErbB2; assay: Eurofins in vitro kinase inhibition assay; assay type: biochemical; settings: compound 20 µM; mean (SD); above 50% significant, 25-50% weak
Method: as §8, §9, §10, §11

PI3K [7] = target: T9, PI3K (Homo sapiens, UniProt P42336); assay: DiscoverX KINOMEscan competition binding assay; set-up: purchased DiscoverX (KINOMEscan service); host or cells: E. coli BL21-derived host (T7 phage) or HEK-293; settings: compound 10 µM; lower values = higher affinity; below 35% = significant binding
Method: as §1, §2, §3, §4, §5, §6, §7
Target sequence in this assay (P42336 whole entry): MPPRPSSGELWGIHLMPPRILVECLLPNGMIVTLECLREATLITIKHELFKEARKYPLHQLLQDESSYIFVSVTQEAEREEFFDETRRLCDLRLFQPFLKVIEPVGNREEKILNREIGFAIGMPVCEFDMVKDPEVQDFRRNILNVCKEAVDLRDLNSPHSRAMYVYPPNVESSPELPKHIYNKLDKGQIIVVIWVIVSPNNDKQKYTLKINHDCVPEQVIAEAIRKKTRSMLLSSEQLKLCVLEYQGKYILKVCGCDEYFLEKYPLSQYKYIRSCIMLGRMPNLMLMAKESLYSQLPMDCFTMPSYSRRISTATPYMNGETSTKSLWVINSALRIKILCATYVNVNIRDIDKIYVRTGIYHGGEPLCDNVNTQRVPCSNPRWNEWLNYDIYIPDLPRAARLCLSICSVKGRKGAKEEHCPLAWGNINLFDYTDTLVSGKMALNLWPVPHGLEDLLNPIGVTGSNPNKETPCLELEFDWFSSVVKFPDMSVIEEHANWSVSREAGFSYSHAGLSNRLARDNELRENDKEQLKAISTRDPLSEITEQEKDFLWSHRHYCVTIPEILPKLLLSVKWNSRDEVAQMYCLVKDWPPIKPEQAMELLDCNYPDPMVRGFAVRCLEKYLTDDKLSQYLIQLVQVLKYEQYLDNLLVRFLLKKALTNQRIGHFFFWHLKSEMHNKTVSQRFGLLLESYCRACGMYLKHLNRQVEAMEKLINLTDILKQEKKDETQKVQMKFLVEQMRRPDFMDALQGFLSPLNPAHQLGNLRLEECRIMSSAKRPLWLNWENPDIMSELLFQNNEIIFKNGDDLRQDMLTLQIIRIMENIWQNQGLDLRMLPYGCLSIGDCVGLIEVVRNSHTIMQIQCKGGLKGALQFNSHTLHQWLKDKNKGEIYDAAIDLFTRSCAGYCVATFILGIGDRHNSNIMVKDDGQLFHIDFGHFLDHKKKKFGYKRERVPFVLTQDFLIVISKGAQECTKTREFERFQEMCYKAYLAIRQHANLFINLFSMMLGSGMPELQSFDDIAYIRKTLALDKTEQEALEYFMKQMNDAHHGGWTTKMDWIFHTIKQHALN

PI3K [8] = target: T9, PI3K; assay: Eurofins in vitro kinase inhibition assay (HTRF, PIP3 displacement); assay type: biochemical; set-up: purchased Eurofins Cerep (contract assay); settings: compound 20 µM; mean (SD); above 50% significant, 25-50% weak
Method: as §8, §9, §10, §11
Target sequence in this assay (P42336 whole entry): as above
Target sequence in this assay (P27986 whole entry partner): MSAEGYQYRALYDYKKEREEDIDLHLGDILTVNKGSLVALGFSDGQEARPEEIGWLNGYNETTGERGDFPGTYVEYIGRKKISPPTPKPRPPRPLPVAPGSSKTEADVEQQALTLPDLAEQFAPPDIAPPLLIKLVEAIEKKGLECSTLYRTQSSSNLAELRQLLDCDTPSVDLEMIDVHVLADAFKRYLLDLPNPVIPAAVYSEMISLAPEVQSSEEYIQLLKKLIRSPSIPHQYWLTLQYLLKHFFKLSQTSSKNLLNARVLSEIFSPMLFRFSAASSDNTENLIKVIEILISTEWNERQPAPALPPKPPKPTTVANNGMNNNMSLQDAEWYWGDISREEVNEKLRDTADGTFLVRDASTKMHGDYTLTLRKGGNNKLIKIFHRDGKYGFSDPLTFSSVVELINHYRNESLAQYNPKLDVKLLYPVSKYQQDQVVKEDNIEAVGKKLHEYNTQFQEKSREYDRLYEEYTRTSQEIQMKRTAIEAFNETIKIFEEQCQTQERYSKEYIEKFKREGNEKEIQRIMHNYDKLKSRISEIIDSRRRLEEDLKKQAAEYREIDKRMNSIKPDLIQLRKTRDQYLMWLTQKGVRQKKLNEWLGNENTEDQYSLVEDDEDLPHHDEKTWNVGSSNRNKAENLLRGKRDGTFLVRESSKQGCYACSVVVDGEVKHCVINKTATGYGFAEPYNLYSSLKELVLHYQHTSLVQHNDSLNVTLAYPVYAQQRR

T2 sequence (P35968 20-1356): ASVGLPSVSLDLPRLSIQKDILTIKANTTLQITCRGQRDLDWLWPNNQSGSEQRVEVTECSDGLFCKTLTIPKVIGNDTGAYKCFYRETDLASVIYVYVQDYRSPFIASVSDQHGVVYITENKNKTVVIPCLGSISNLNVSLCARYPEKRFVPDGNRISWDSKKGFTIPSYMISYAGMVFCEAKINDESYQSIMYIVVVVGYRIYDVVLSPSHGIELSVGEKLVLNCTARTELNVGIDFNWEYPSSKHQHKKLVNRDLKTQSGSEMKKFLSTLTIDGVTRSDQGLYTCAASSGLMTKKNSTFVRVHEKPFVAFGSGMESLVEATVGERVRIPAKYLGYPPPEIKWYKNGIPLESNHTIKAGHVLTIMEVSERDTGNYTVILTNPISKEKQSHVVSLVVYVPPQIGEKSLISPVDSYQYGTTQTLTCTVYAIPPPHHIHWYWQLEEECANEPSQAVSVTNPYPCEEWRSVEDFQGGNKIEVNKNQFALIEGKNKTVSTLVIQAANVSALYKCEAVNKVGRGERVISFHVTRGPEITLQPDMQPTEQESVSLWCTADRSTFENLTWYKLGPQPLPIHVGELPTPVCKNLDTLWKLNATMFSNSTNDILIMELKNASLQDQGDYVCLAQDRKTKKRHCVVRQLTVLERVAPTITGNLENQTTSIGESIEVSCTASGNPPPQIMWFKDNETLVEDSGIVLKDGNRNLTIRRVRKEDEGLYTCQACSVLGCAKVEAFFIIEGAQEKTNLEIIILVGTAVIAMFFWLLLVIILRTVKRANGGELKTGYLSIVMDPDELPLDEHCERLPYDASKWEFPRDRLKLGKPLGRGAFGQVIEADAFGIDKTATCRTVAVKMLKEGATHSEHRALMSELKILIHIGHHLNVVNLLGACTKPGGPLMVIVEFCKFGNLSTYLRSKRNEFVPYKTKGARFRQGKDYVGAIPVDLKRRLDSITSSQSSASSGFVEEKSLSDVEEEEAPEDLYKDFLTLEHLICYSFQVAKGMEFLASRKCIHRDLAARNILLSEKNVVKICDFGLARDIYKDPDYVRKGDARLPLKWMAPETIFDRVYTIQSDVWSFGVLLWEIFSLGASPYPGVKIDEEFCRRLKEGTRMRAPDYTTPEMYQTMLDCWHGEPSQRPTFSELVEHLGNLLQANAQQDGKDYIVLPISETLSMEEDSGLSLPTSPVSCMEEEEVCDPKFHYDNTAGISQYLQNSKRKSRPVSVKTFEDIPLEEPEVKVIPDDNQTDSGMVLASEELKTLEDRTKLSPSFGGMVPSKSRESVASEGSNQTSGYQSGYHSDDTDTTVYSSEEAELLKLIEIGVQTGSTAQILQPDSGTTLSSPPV
T3 sequence (P00533 25-1210): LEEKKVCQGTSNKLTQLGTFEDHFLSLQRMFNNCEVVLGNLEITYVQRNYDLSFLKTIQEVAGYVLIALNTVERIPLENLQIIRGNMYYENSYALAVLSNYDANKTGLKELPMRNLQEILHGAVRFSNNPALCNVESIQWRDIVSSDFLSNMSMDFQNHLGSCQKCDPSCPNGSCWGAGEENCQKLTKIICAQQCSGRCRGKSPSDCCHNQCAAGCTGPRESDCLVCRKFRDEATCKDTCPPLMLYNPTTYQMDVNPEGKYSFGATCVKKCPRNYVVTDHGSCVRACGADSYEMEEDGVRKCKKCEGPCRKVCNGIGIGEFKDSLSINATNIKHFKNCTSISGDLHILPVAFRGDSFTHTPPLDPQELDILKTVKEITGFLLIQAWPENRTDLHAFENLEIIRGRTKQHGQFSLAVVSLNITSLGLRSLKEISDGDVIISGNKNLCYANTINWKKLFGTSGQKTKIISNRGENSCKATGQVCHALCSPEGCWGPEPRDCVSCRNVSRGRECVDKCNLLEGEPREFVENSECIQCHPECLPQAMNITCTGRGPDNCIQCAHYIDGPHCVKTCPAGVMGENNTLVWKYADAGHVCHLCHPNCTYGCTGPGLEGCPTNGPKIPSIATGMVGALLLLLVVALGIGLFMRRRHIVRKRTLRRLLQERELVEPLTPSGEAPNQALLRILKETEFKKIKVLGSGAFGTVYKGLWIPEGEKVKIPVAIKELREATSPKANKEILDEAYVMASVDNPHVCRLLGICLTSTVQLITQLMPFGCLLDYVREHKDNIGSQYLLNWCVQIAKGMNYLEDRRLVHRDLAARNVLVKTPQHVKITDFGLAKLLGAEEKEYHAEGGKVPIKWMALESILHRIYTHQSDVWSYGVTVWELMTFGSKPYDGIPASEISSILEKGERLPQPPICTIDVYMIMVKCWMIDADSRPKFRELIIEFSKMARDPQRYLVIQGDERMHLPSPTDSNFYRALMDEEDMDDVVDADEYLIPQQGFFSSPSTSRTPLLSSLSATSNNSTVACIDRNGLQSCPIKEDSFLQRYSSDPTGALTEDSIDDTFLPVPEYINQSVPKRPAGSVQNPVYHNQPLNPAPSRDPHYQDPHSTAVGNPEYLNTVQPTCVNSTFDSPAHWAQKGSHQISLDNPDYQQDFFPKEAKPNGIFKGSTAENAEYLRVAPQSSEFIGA
T1 sequence (P15056 whole entry): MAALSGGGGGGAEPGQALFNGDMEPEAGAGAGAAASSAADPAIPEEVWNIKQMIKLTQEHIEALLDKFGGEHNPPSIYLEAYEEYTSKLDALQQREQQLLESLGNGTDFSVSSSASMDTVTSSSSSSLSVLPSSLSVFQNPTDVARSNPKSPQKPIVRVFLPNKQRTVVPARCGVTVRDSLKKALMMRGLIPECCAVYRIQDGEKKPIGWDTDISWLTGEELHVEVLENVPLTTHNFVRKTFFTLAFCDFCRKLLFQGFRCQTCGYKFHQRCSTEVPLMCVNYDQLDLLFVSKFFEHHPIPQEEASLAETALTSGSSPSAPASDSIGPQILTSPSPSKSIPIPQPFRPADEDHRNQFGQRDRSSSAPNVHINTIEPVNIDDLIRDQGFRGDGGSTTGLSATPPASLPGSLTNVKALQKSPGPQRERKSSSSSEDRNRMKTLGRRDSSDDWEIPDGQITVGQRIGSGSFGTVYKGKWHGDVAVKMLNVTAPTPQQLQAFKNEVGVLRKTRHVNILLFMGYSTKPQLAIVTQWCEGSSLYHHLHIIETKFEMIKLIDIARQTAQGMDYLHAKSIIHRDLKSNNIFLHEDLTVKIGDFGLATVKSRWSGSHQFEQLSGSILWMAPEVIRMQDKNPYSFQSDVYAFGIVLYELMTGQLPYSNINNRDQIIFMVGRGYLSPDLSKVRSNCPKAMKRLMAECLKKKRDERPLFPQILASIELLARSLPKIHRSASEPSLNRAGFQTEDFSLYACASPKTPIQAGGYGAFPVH

| % control, BRAF (DiscoverX) (BRAF [1]) | % control, VEGFR2 (DiscoverX) (VEGFR2) | % control, EGFR (DiscoverX) (EGFR [2]) | % control, LCK (DiscoverX) (LCK) | % control, ErbB2 (DiscoverX) (ErbB2 [3]) | % control, CDK2 (DiscoverX) (CDK2) | % control, p38α (DiscoverX) (p38α) | % control, MET (DiscoverX) (MET) | % inhibition of control activity, BRAF (Eurofins) (BRAF [4]) | % inhibition of control activity, EGFR (Eurofins) (EGFR [5]) | % inhibition of control activity, ErbB2 (Eurofins) (ErbB2 [6]) | % control, PI3K (DiscoverX) (PI3K [7]) | % inhibition of control activity, PI3K (Eurofins) (PI3K [8]) | SMILES | % ctrl. activity at 10 µM, BRAF (DiscoverX), printed as symbol (BRAF [1]; 10 µM, Table 3) |
| --- | --- | --- | --- | --- | --- | --- | --- | --- | --- | --- | --- | --- | --- | --- |
| 100 % control | 99 % control |  |  |  |  |  |  |  |  |  |  |  | CC1Oc2ccc(Nc3ncnc4c3oc3ccccc34)cc2NC1=O (stereo not drawn) [K001MM011] | – ^d (percent control activity ≥ 99%, i.e., no measurable inhibition) |
| 100 % control | 100 % control | 100 % control | 100 % control | 94 % control | 100 % control | 87 % control | 85 % control | -11.1 (4.9) % inhibition | 4.3 (6.9) % inhibition | -0.6 (1.1) % inhibition | 100 % control | 1.7 (0.8) % inhibition | O=C(NCC1CC1)Nc1ccc(N2CCOC2=O)cc1 [DS75739] |  |
| 100 % control | 98 % control | 100 % control | 100 % control | 94 % control | 100 % control | 100 % control | 91 % control | -17.7 (15.6) % inhibition | 22.7 (15.5) % inhibition | 4.5 (4.9) % inhibition | 100 % control | 0.9 (3.6) % inhibition | O=C1C[C@@H](c2noc(-c3ccc[nH]c3=O)n2)CN1Cc1ccccc1 [DS52225] |  |
| 100 % control | 91 % control | 90 % control |  | 100 % control |  |  |  |  |  |  |  |  | Cc1ccc(NC(=O)COC(=O)c2cc(=O)[nH]c3ccccc23)cc1 [K001MM012] |  |
| 100 % control | 100 % control | 100 % control | 100 % control | 100 % control | 100 % control | 99 % control | 97 % control | -22.9 (4.9) % inhibition | 7.8 (3.3) % inhibition | 5.8 (0.2) % inhibition | 87 % control | 0.2 (3.6) % inhibition | CCc1nnc(NC(=O)c2nn(-c3ccc(C)cc3)ccc2=O)s1 [DS59212] |  |
| 100 % control | 100 % control | 100 % control | 99 % control | 100 % control | 100 % control | 100 % control | 100 % control | -27.8 (10.8) % inhibition | 9.6 (0.2) % inhibition | -1.7 (0.8) % inhibition | 73 % control |  | COCCCNC(=O)c1nc2c3c4c(sc3ncn2n1)CC[C@H](C)C4 [DS31939] |  |
| 87 % control | 100 % control | 90 % control |  | 94 % control |  |  |  |  |  |  |  |  | Cc1cccc(NC(=O)N[C@H](C)[C@H](C)N2CCOCC2)n1 [K001MM007] |  |
| 99 % control | 100 % control | 100 % control |  | 100 % control |  |  |  |  |  |  |  |  | CCCCn1nnnc1CN1CCc2nn(CC)c(=O)cc2C1 [K001MM005] |  |
| 100 % control | 97 % control | 95 % control |  | 90 % control |  |  |  |  |  |  |  |  | Nc1nc(N2CCC[C@H](Cc3nc4ccccc4[nH]3)C2)c2nc[nH]c2n1 [K001MM010] |  |
| 89 % control | 100 % control | 97 % control |  | 92 % control |  |  |  |  |  |  |  |  | CC(C)OCC(O)CN1CCN(C(=O)c2cccc(Cl)c2)CC1 (stereo not drawn) [K001MM002] |  |
| 100 % control | 90 % control | 100 % control |  | 94 % control |  |  |  |  |  |  |  |  | Cc1cc(COC(=O)c2cnc3c(cnn3Cc3ccccc3)c2)on1 [K001MM013] |  |
| 100 % control | 100 % control | 100 % control |  | 100 % control |  |  |  |  |  |  |  |  | COCCNC(=O)NC(C)Cc1ccc(O)cc1 (stereo not drawn) [K001MM004] |  |
| 100 % control | 100 % control | 96 % control |  | 100 % control |  |  |  |  |  |  |  |  | CCOCC(C)(C)NC(=O)Nc1cc(F)ccc1OC [K001MM006] |  |
| 95 % control | 100 % control | 99 % control |  | 99 % control |  |  |  |  |  |  |  |  | Cc1ccccc1Cn1cnc2c(nnn2-c2ccccc2)c1=O [K001MM003] |  |
| 99 % control | 100 % control | 100 % control | 100 % control | 100 % control | 99 % control | 100 % control | 99 % control | -19.7 (2.4) % inhibition | 10.7 (0.4) % inhibition | -7.2 (5.7) % inhibition | 97 % control |  | CCc1nccc(-c2nccn2C(Cn2cccn2)c2ccccc2)n1 (stereo not drawn) [DS23815] |  |
